Each structure is given as a SMILES string. *1 amine or outer side, *2 acyl side, *3 side chain or, on linkers, in order; H or OH if unused. Where a SMILES comes first, the peptide text is derived from it. [ ]: non-standard residue; d: D form. The star is where a group is joined. Pro(3R,4S-CMe2) = CC1(C)[C@@H]2[C@@H](C(=O)O)NC[C@@H]21; Abu(4,4-F2) = N[C@@H](CC(F)F)C(=O)O; Phg = N[C@H](C(=O)O)c1ccccc1; Tle = CC(C)(C)[C@H](N)C(=O)O; CO = O=C([*:1])[*:2]; NHtBu = CC(C)(C)N*; X2 = CC1(N*)CCCCC1 Bounds are passed on as bounds.

The first assay deals with T1, HCV NS3/NS4a serine protease (Hepatitis C virus genotype 1b, UniProt P26663).
T1 construct: amino terminus of the NS3 protease domain (amino acids 3-181) with a tetrapeptide linker; made in house; host or cells: E. coli
T1 sequence (P26663 1013-1207, looked up, natural form): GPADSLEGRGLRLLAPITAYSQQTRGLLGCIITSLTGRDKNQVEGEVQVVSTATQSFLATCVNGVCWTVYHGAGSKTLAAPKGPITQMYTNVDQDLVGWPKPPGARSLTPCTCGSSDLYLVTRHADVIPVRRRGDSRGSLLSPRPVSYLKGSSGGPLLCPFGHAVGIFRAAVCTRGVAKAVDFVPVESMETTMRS
Kind of assay: Spectrophotometric assay for HCV protease inhibitory activity (chromogenic ester substrates). Format: biochemical, hepatitis C virus (strain 1b). To be noted: Ki Rating, Table 2; single chain NS4A21-32-GSGS-NS3 3-181 protease, 30° C., pH 6.5. As for the experimental part:
Spectrophotometric Assay: Spectrophotometric assays for the HCV serine protease were performed on the inventive compounds by following the procedure described by R. Zhang et al., Analytical Biochemistry, 270 (1999) 268-275, the disclosure of which is incorporated herein by reference. The assay based on the proteolysis of chromogenic ester substrates is suitable for the continuous monitoring of HCV NS3 protease activity.
HCV NS3 protease (strain 1b) and its NS4A cofactor were constructed as a recombinant single chain protein. The NS4A cofactor domain (amino acid residues 21-32) was fused in frame to the amino terminus of the NS3 protease domain (amino acids 3-181) with a tetrapeptide linker. This NS4A 21-32-GSGS-NS33-181 construct was then expressed in E. coli and purified to >90% homogeneity. Kinetic parameters were determined and found to be the same as that of the full length NS31-631/NS4A1-54 protein complex produced in the baculovirus system (D. L. Sali et al, Biochemistry, 37 (1998) 3392-340). The details of the cloning, expression, purification and kinetic analysis of the of the single chain recombinant protease have been previously described (S. S. Taremi, et al. Protein Science. 7 (1998) 2143-2149.
Protein concentrations were determined by the Biorad dye method using recombinant HCV protease standards previously quantified by amino acid analysis. Prior to assay initiation, the enzyme storage buffer (50 mM sodium phosphate pH 8.0, 300 mM NaCl, 10% glycerol, 0.05% lauryl maltoside and 10 mM DTT) was exchanged for the assay buffer (25 mM MOPS pH 6.5, 300 mM NaCl, 10% glycerol, 0.05% lauryl maltoside, 5 μM EDTA and 5 μM DTT) utilizing a Biorad Bio-Spin P-6 prepacked column.
Protease Assay: HCV protease assays were performed at 30° C. using a 200 μl reaction mix in a 96-well microtiter plate. Assay buffer conditions (25 mM MOPS pH 6.5, 300 mM NaCl, 10% glycerol, 0.05% lauryl maltoside, 5 μM EDTA and 5 μM DTT) were optimized for the NS3/NS4A heterodimer (D. L. Sali et al, ibid.)). Typically, 100 μl mixtures of buffer, substrate and inhibitor were placed in wells and allowed to preincubate at 30° C. for approximately 3 minutes. One hundred μls of pre-warmed protease (30° C.) in assay buffer, was then used to initiate the reaction to produce a final concentration of 1.3 nM HCV). The Substrate cleavage by the protease was monitored over 60 minutes by measuring the release of the phenylazophenol (PAP) product at an absorbance of 370 nm with a continuous read every 30 seconds using a SpectraMax Plus microtiter plate reader (Molecular Devices, Sunnyvale, Calif.). Background hydrolysis of the substrate was subtracted. Inhibitors were tested over a range of concentrations (final DMSO concentration 4%)
Evaluation of Inhibitors The inhibition constants (Ki) for the competitive inhibitors were determined experimentally at fixed concentrations of enzyme and substrate by plotting vo/vi vs. inhibitor concentration ([I]o) according to the rearranged Michaelis-Menten equation for competitive inhibition kinetics: vo/vi=1+[I]o/(Ki(1+[S]o/Km)), where vo is the uninhibited initial velocity, vi is the initial velocity in the presence of inhibitor at any given inhibitor concentration ([I]o) and [S]o is the substrate concentration used. The resulting data were fitted using linear regression and the resulting slope, 1/(Ki(1+[S]o/Km), was used to calculate the Ki value.
With `CC(C)(C)OC(=O)N[C@H](C(=O)N1C[C@H]2[C@@H]([C@H]1C(=O)NC(CC(F)F)C(=O)O)C2(C)C)C(C)(C)C` (stereo partly drawn) [Example 167], the Ki is > 500 nM.
On the same count and under the same terms, as for `CC(C)[C@H](NC(=O)N[C@H](C(=O)N1C[C@H]2[C@@H]([C@H]1C(=O)N[C@@H](CC(F)F)C(=O)O)C2(C)C)C(C)(C)C)C(=O)OC(C)(C)C` [Example 153], the figure is > 500 nM; as for `CC(C)[C@H](NC(=O)N[C@H](C(=O)N1C[C@H]2[C@@H]([C@H]1C(=O)N[C@@H](CC(F)F)C(=O)NCCC(=O)OC(C)(C)C)C2(C)C)C(C)(C)C)C(=O)OC(C)(C)C` [Example 174], > 500 nM.
On the same count and under the same terms, with `CC(C)[C@H](NC(=O)N[C@H](C(=O)N1C[C@H]2[C@@H]([C@H]1C(=O)NC(CC(F)F)C(=O)NCCc1ccccc1Cl)C2(C)C)C(C)(C)C)C(=O)OC(C)(C)C` (stereo partly drawn) [Example 147] the figure was > 500 nM; with `CC(C)[C@H](NC(=O)N[C@H](C(=O)N1C[C@H]2[C@@H]([C@H]1C(=O)N[C@@H](CC(F)F)C(N)=O)C2(C)C)C(C)(C)C)C(=O)OC(C)(C)C` [Example 164], > 500 nM.
In the case of `COC(=O)c1ccc(CCNC(=O)[C@H](CC(F)F)NC(=O)[C@@H]2[C@@H]3[C@H](CN2C(=O)[C@@H](NC(=O)N[C@H](C(=O)OC(C)(C)C)C(C)C)C(C)(C)C)C3(C)C)cc1` [Example 133], the Ki is 100 to 500 nM.
Still for that read-out and setting: as for `CC(C)[C@H](NC(=O)N[C@H](C(=O)N1C[C@H]2[C@@H]([C@H]1C(=O)N[C@@H](CC(F)F)C(N)=O)C2(C)C)C(C)(C)C)C(=O)O` [Example 157], the figure is > 500 nM; as for `CN(C)C(=O)[C@@H](NC(=O)CNC(=O)[C@H](CC(F)F)NC(=O)[C@@H]1[C@@H]2[C@H](CN1C(=O)[C@@H](NC(=O)NC(C)(C)C)C(C)(C)C)C2(C)C)c1ccccc1` [Example 166] ({NHtBu-CO}-[Tle][Pro(3R,4S-CMe2)][Abu(4,4-F2)]G[Phg]-NMe2), > 500 nM.
Still for that read-out and setting: as for `CN(C)C(=O)[C@@H](NC(=O)CNC(=O)[C@H](CC(F)F)NC(=O)[C@@H]1[C@@H]2[C@H](CN1C(=O)[C@@H](NC(=O)NC1(C)CCCCC1)C(C)(C)C)C2(C)C)c1ccccc1` [Example 172] ({X2-CO}-[Tle][Pro(3R,4S-CMe2)][Abu(4,4-F2)]G[Phg]-NMe2), the figure is > 500 nM.
Take `CC(C)(C)OC(=O)[C@@H](NC(=O)N[C@H](C(=O)N1C[C@H]2[C@@H]([C@H]1C(=O)N[C@@H](CC(F)F)C(=O)NCCc1ccc(C(=O)O)cc1)C2(C)C)C(C)(C)C)C(C)(C)C` [Example 127]: the Ki was in the range of 100 to 500 nM.

The assay is the same for the next values; noted with them: Ki, Table 1; single chain NS4A21-32-GSGS-NS3 3-181 protease, 30° C., pH 6.5.
Turning to `CC(C)(C)[C@H](NC(=O)N[C@H](C(=O)N1C[C@H]2[C@@H]([C@H]1C(=O)N[C@@H](CC(F)F)C(=O)NCCc1ccc(C(=O)O)cc1)C2(C)C)C(C)(C)C)C(=O)O` [Example 114], the Ki is 90 nM.
Still for that read-out and setting: as for `CC(C)(C)[C@H](NC(=O)N[C@H](CN1CCCS1(=O)=O)C(C)(C)C)C(=O)N1C[C@H]2[C@@H](C1C(=O)NC(CC(F)F)C(=O)NCCc1ccc(C(N)=O)cc1Cl)C2(C)C` (stereo partly drawn) [Example 111], the figure is 42 nM.

Staying with this assay, now noted: Ki, Table 3; rating; single chain NS4A21-32-GSGS-NS3 3-181 protease, 30° C., pH 6.5.
For the compound `CCN(Cc1ccncc1)C(=O)[C@H](CC(F)F)NC(=O)[C@@H]1[C@@H]2[C@H](CN1C(=O)[C@@H](NC(=O)N[C@H](CN(C)S(C)(=O)=O)C(C)(C)C)C(C)(C)C)C2(C)C` [Example 304], the Ki was > 500 nM.
The same measure, in the same setting: as for `CN(C[C@@H](NC(=O)N[C@H](C(=O)N1C[C@H]2[C@@H]([C@H]1C(=O)N[C@@H](CC(F)F)C(=O)NCCc1ccc(Br)cc1)C2(C)C)C(C)(C)C)C(C)(C)C)S(C)(=O)=O` [Example 290], the figure is < 100 nM; as for `CN(C[C@@H](NC(=O)N[C@H](C(=O)N1C[C@H]2[C@@H]([C@H]1C(=O)N[C@@H](CC(F)F)C(=O)N[C@H]1CCCC[C@H]1OCc1ccccc1)C2(C)C)C(C)(C)C)C(C)(C)C)S(C)(=O)=O` [Example 256], > 500 nM; as for `Cc1ccc(CCNC(=O)[C@H](CC(F)F)NC(=O)[C@@H]2[C@@H]3[C@H](CN2C(=O)[C@@H](NC(=O)N[C@H](CN(C)S(C)(=O)=O)C(C)(C)C)C(C)(C)C)C3(C)C)cc1` [Example 261], < 100 nM.
`CN(C[C@@H](NC(=O)N[C@H](C(=O)N1C[C@H]2[C@@H]([C@H]1C(=O)N[C@@H](CC(F)F)C(=O)NCCCN1CCOCC1)C2(C)C)C(C)(C)C)C(C)(C)C)S(C)(=O)=O` [Example 242]: the Ki is > 500 nM.
On the same count and under the same terms, as for `CCOCCCNC(=O)[C@H](CC(F)F)NC(=O)[C@@H]1[C@@H]2[C@H](CN1C(=O)[C@@H](NC(=O)N[C@H](CN(C)S(C)(=O)=O)C(C)(C)C)C(C)(C)C)C2(C)C` [Example 211], the figure is > 500 nM; as for `COc1ccccc1CNC(=O)[C@H](CC(F)F)NC(=O)[C@@H]1[C@@H]2[C@H](CN1C(=O)[C@@H](NC(=O)N[C@H](CN(C)S(C)(=O)=O)C(C)(C)C)C(C)(C)C)C2(C)C` [Example 222], > 500 nM; as for `CN(C[C@@H](NC(=O)N[C@H](C(=O)N1C[C@H]2[C@@H]([C@H]1C(=O)N[C@@H](CC(F)F)C(=O)NCCN1CCOCC1)C2(C)C)C(C)(C)C)C(C)(C)C)S(C)(=O)=O` [Example 240], > 500 nM.
Still for that read-out and setting: with `COc1ccc(CCNC(=O)[C@H](CC(F)F)NC(=O)[C@@H]2[C@@H]3[C@H](CN2C(=O)[C@@H](NC(=O)N[C@H](CN(C)S(C)(=O)=O)C(C)(C)C)C(C)(C)C)C3(C)C)cc1` [Example 271] the figure was < 100 nM; with `CN(C[C@@H](NC(=O)N[C@H](C(=O)N1C[C@H]2[C@@H]([C@H]1C(=O)N[C@@H](CC(F)F)C(=O)NCCc1cccc(Cl)c1)C2(C)C)C(C)(C)C)C(C)(C)C)S(C)(=O)=O` [Example 202], < 100 nM; with `CN(C[C@@H](NC(=O)N[C@H](C(=O)N1C[C@H]2[C@@H]([C@H]1C(=O)N[C@@H](CC(F)F)C(=O)NCCc1ccncc1)C2(C)C)C(C)(C)C)C(C)(C)C)S(C)(=O)=O` [Example 237], < 100 nM.
The same measure, in the same setting: with `COc1cc(CCNC(=O)[C@H](CC(F)F)NC(=O)[C@@H]2[C@@H]3[C@H](CN2C(=O)[C@@H](NC(=O)N[C@H](CN(C)S(C)(=O)=O)C(C)(C)C)C(C)(C)C)C3(C)C)ccc1O` [Example 294] the figure was < 100 nM.
Take `CC(C)CNC(=O)[C@H](CC(F)F)NC(=O)[C@@H]1[C@@H]2[C@H](CN1C(=O)[C@@H](NC(=O)N[C@H](CN(C)S(C)(=O)=O)C(C)(C)C)C(C)(C)C)C2(C)C` [Example 206]: the Ki is > 500 nM.
Same read-out and setting: as for `CN(C[C@@H](NC(=O)N[C@H](C(=O)N1C[C@H]2[C@@H]([C@H]1C(=O)N[C@@H](CC(F)F)C(=O)NCCc1ccc(Cl)c(Cl)c1)C2(C)C)C(C)(C)C)C(C)(C)C)S(C)(=O)=O` [Example 285], the figure is < 100 nM; as for `CN(C[C@@H](NC(=O)N[C@H](C(=O)N1C[C@H]2[C@@H]([C@H]1C(=O)N[C@@H](CC(F)F)C(=O)NC1CCCC1)C2(C)C)C(C)(C)C)C(C)(C)C)S(C)(=O)=O` [Example 207], > 500 nM.
The same measure, in the same setting: with `C[C@H](NC(=O)[C@H](CC(F)F)NC(=O)[C@@H]1[C@@H]2[C@H](CN1C(=O)[C@@H](NC(=O)N[C@H](CN(C)S(C)(=O)=O)C(C)(C)C)C(C)(C)C)C2(C)C)[C@H](O)c1ccccc1` [Example 248] the figure was < 100 nM; with `CC(C)CCNC(=O)[C@H](CC(F)F)NC(=O)[C@@H]1[C@@H]2[C@H](CN1C(=O)[C@@H](NC(=O)N[C@H](CN(C)S(C)(=O)=O)C(C)(C)C)C(C)(C)C)C2(C)C` [Example 208], > 500 nM; with `CN(C[C@@H](NC(=O)N[C@H](C(=O)N1C[C@H]2[C@@H]([C@H]1C(=O)N[C@@H](CC(F)F)C(=O)NC1CCN(Cc3ccccc3)CC1)C2(C)C)C(C)(C)C)C(C)(C)C)S(C)(=O)=O` [Example 243], > 500 nM.

The record behind these values is patent publication US7449447B2, “Peptidomimetic NS3-serine protease inhibitors of hepatitis C virus” (priority 2003, dated 2008).
